Assay results reported in PubChem BioAssay (NCI).
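GI50 marks 50% less growth. TGI: concentration producing complete growth inhibition.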

Columns and labels:
Experiment in all cases: inhibition of tumour cell growth, NCI panel, 384-well format
HOP-92 NSCLC = test system: HOP-92 NSCLC
OVCAR-3 ovarian = test system: OVCAR-3 ovarian
NCI-H23 lung = test system: NCI-H23 lung
SF-268 CNS = test system: SF-268 CNS
SF-295 CNS = test system: SF-295 CNS
RPMI-8226 leukemia = test system: RPMI-8226 leukemia
NCI-H322M lung = test system: NCI-H322M lung
UO-31 renal = test system: UO-31 renal
U251 glioblastoma = test system: U251 glioblastoma
SK-OV-3 ovarian = test system: SK-OV-3 ovarian
KM12 colon = test system: KM12 colon
IGROV1 ovarian = test system: IGROV1 ovarian
A498 renal = test system: A498 renal

CN1CC[C@@H](c2c(O)cc(O)c3c(=O)cc(-c4ccc(C(F)(F)F)cc4Cl)oc23)[C@@H]1CO was tested, and the GI50 (HOP-92 NSCLC) was 12.7 µM, the TGI (HOP-92 NSCLC) was 25.3 µM and the GI50 (OVCAR-3 ovarian) was 12.7 µM. It also gave a TGI (OVCAR-3 ovarian) of 25.9 µM, a GI50 (NCI-H23 lung) of 14.9 µM and a TGI (NCI-H23 lung) of 28.2 µM. It also gave a GI50 (SF-268 CNS) of 15.1 µM, a TGI (SF-268 CNS) of 28.5 µM and a GI50 (SF-295 CNS) of 16.7 µM. The TGI (SF-295 CNS) was 30.8 µM, the GI50 (RPMI-8226 leukemia) was 7.71 µM and the TGI (RPMI-8226 leukemia) was 20.3 µM. It also gave a GI50 (NCI-H322M lung) of 15.5 µM, a TGI (NCI-H322M lung) of 29.2 µM and a GI50 (UO-31 renal) of 10.8 µM. It also gave a TGI (UO-31 renal) of 23.2 µM, a GI50 (U251 glioblastoma) of 15.5 µM and a TGI (U251 glioblastoma) of 29 µM. It also gave a GI50 (SK-OV-3 ovarian) of 16.3 µM, a TGI (SK-OV-3 ovarian) of 31.1 µM and a GI50 (KM12 colon) of 13.1 µM. It also gave a TGI (KM12 colon) of 26 µM, a GI50 (IGROV1 ovarian) of 12 µM and a TGI (IGROV1 ovarian) of 25.7 µM. The GI50 (A498 renal) was 11.8 µM and the TGI (A498 renal) was 24.2 µM.
For Cn1c(Nc2ccc(C(F)(F)F)cc2)nc2cc(Oc3ccnc(-c4ncc(C(F)(F)F)[nH]4)c3)ccc21, the GI50 (HOP-92 NSCLC) was 0.584 µM, the TGI (HOP-92 NSCLC) was 6 µM and the GI50 (OVCAR-3 ovarian) was 0.158 µM. For the same compound, the TGI (OVCAR-3 ovarian) was 2.46 µM, the GI50 (NCI-H23 lung) was 0.179 µM and the TGI (NCI-H23 lung) was 2.33 µM. The GI50 (SF-268 CNS) was 0.387 µM, the TGI (SF-268 CNS) was 13.3 µM and the GI50 (SF-295 CNS) was 0.249 µM. For the same compound, the TGI (SF-295 CNS) was 5.66 µM, the GI50 (RPMI-8226 leukemia) was 0.232 µM and the TGI (RPMI-8226 leukemia) was 2.09 µM. It also gave a GI50 (NCI-H322M lung) of 0.106 µM, a TGI (NCI-H322M lung) of 12.6 µM and a GI50 (UO-31 renal) of 0.332 µM. For the same compound, the TGI (UO-31 renal) was 12.6 µM, the GI50 (U251 glioblastoma) was 0.0979 µM and the TGI (U251 glioblastoma) was 12.7 µM. It also gave a GI50 (SK-OV-3 ovarian) of 0.0127 µM, a TGI (SK-OV-3 ovarian) of 12.5 µM and a GI50 (KM12 colon) of 0.734 µM. For the same compound, the TGI (KM12 colon) was 12.5 µM, the GI50 (IGROV1 ovarian) was 0.041 µM and the TGI (IGROV1 ovarian) was 11.2 µM. It also gave a TGI (A498 renal) of 12.9 µM.
